From US8143223B2, “Cytoprotection by means of phosphotyrosine” (Eberhard-Karls-Universitaet Tuebingen Universitaetsklinikum, priority 2001, dated 2012)

Experiments:
[1] = test system: transformed fibroblasts (HH4dd); experiment: Clonogenic assay after P-Tyr pretreatment and cisplatin treatment; type: cell-based, human; settings: 10 μM P-Tyr for 16 hours, then 1 μg of cisplatin/ml for one hour, FIG. 6B
Method: (§1) The incubation with cisplatin take place at a concentration of 1 μg of cisplatin/ml (cis-diammine platinum(II-dichloride); Sigma, Munich, Germany).
(§2) The cells, which are cultured as described in Example 1 and which are either incubated with the cell-damaging factors as described in Example 2 or remain untreated as controls, are freed from medium, washed and detached from the substrate using 0.05% trypsin and 0.1% EDTA. For the purpose of analyzing colony formation, the detached cells are plated at a constant cell density of 1500 cells per 78 cm^2 dish. The plated cells were then incubated for 14 days in normal medium additionally containing 20% FCS. This period of time enabled colony formation to take place.
(§3) In this connection, a colony is a mass of cells which develops, during the 14 days of culture, from a single cell as a result of consecutive cell divisions. This colony is also termed a clone. […] If many cells die during the treatment with the cell-damaging factors, only a few colonies are then formed after 14 days; if many cells survive, many colonies can then be counted after the 14 days of culture. […]
(§4) After the 14 days of culture, the cells are fixed, stained and counted as described (Dittmann et al., 1995, loc. cit.). When determining clonogenic survival, the colonies containing more than 50 cells are counted per plate. […]

[2] = test system: normal, untransformed fibroblasts (HSF1); experiment: as above; type: cell-based, human; settings: 10 μM P-Tyr for 16 hours, then 1 μg of cisplatin/ml for one hour, versus cells not pretreated, FIG. 6A
Method: as §1, §2, §3, §4

[3] = test system: transformed fibroblasts (HH4dd); experiment: Clonogenic assay after P-Tyr pretreatment and UVB irradiation; type: cell-based, human; settings: 10 μM P-Tyr for 16 hours, then 200 J of UVB, FIG. 5B
Method: (§5) The cells are irradiated with UV light (312 nm) at a dose rate of 450 J/m^2 per minute using a UVB lamp (Bioblock Scientific, Illkirch Cedex, France).
as §2, §3, §4

[4] = test system: normal, untransformed fibroblasts (HSF1); experiment: as above; type: cell-based, human; settings: 10 μM P-Tyr for 16 hours, then 200 J of UVB, assayed 7 hours later, FIG. 5A
Method: as §5, §2, §3, §4

[5] = test system: HTB-35 squamous carcinoma cell line; experiment: Clonogenic assay after P-Tyr pretreatment and ionizing irradiation at 0 to 6 Gy; type: cell-based, human; settings: 10 μM P-Tyr for 16 hours, FIG. 4
From the text: (§6) In addition, it is possible to use the human squamous carcinoma cell lines HTB-35 (ATCC, which is derived from a cervical carcinoma, passage unknown, used in passage 10 after receipt) (Srivastava et al., “The status of the p53 gene in human papilloma virus positive or negative cervical carcinoma cell lines”, Carcinogenesis 13, pages 1273-1275, 1992) and HTB-43 (ATCC, is derived from a hypopharyngeal tumor, passage 124). Both carcinoma cell lines are characterized by a point mutation in the p53 gene (Kim et al., “State of p53, Rb and DCC tumor suppressor genes in human oral cancer cell lines”, Anticancer Research, pages 1405-1413, 1993). […]
as §3, with “divisions.” for “divisions. This colony is also termed a clone.”
as §4

[6] = test system: HTB-43 squamous carcinoma cell line; experiment: as above; type: cell-based, human; settings: 10 μM P-Tyr for 16 hours, FIG. 4
From the text: as §6
as §3, with “divisions.” for “divisions. This colony is also termed a clone.”
as §4

[7] = Inventors' investigations of the concentration range of the cytoprotective effect; type: cell-based; settings: investigations carried out by the inventors
Method: In the culture medium according to the invention it is preferred to use phosphotyrosine in a concentration range of from 1 to 100 μM. Thus, investigations carried out by the inventors have shown that the cytoprotective effect of the phosphotyrosine is particularly high in this range.

[8] = test system: normal skin fibroblasts (HSF6); experiment: Clonogenic assay after P-Tyr pretreatment alone, no cell-damaging treatment; type: cell-based, human; settings: P-Tyr alone for 16 hours at up to 2000 μM, FIG. 2A
Method: Human fibroblasts (cell strains HSF1 and HSF6, which are derived from human skin, passages 9 to 15; CCD32, which is derived from embryonic lung tissue, passages 9 to 11) are particularly well suited for investigating the cytoprotective properties of the phosphotyrosine.
The cells are cultured in Dulbecco's modified Eagle's medium (DMEM) supplemented with 10% fetal calf serum (FCS) (GIBCO/BRL, Eggenstein, Germany, article No. 40G7285K) (=normal medium), under standard conditions. […]
as §3, with “divisions.” for “divisions. This colony is also termed a clone.”
as §4
(§7) The result of such a clonogenic assay is expressed as “relative cytoprotection” or in “% number of the clones”, with the number of the colonies formed in the different assays being related to each other. […]

[9] = test system: human breast and kidney carcinoma cells; settings: Mishra and Hamburger 1993; P-Tyr dose-dependent; run at 1.67 mM, some at 16.7 mM; cited from earlier work
[10] = test system: untransformed fibroblasts (HSF1); experiment: Clonogenic assay comparing the radioprotective effect of phosphorylated amino acids, 4 Gy; type: cell-based, human; settings: 10 μM for 16 hours, then 4 Gy ionizing irradiation, FIG. 3
Method: The cells, which are cultured as described in Example 1 and which are either incubated with the cell-damaging factors as described in Example 2 or remain untreated as controls, are freed from medium, washed and detached from the substrate using 0.05% trypsin and 0.1% EDTA. For the purpose of analyzing colony formation, the detached cells are plated at a constant cell density of 1500 cells per 78 cm^2 dish. […]
In this connection, a colony is a mass of cells which develops, during the 14 days of culture, from a single cell as a result of consecutive cell divisions. […] If many cells die during the treatment with the cell-damaging factors, only a few colonies are then formed after 14 days; if many cells survive, many colonies can then be counted after the 14 days of culture.

[11] = test system: normal skin fibroblasts (HSF6); experiment: Clonogenic assay after P-Tyr pretreatment and ionizing irradiation at 0 to 6 Gy; type: cell-based, human; settings: 10 μM P-Tyr for 16 hours, up to 6 Gy, FIG. 4
Method: (§8) For the radioactive irradiation, the cells are irradiated with 4 MV photons using a “Linac” (Mevatron^60/Siemens, Erlangen, Germany) using a dose rate of 2 Gy/min at room temperature, as described (Dittmann et al. “Bowman-Birk Proteinase inhibitor modulates radiosensitivity and radiation-induced differentiation of human fibroblasts in culture”, Radiother. Oncol. 34, pages 137-143, 1995).
as §2, with “The plated cells were then incubated for 14 days in normal medium additionally containing 20% FCS. This period of time enabled colony formation to take place.” left out
as §3, with “divisions.” for “divisions. This colony is also termed a clone.”
as §4

[12] = test system: normal lung fibroblasts (CCD32); experiment: as above; type: cell-based, human; settings: 10 μM P-Tyr for 16 hours, up to 6 Gy, FIG. 4
Method: as §8
as §2, with “The plated cells were then incubated for 14 days in normal medium additionally containing 20% FCS. This period of time enabled colony formation to take place.” left out
as §3, with “divisions.” for “divisions. This colony is also termed a clone.”
as §4

[13] = test system: liver carcinoma cell line and arc-transformed NIH 3T3 cells; settings: Mishra and Hamburger, Cancer Letters 1996; cited from earlier work
[14] = test system: normal skin fibroblasts (HSF6); experiment: Clonogenic assay after P-Tyr pretreatment and ionizing irradiation at 4 Gy, different P-Tyr doses; type: cell-based, human; settings: FIG. 2B
Method: as §8
as §2, with “The plated cells were then incubated for 14 days in normal medium additionally containing 20% FCS. This period of time enabled colony formation to take place.” left out
as §3, with “divisions.” for “divisions. This colony is also termed a clone.”
as §4

[15] = test system: transformed HH4dd fibroblasts; experiment: as above; type: cell-based, human; settings: FIG. 2B
Method: as §8
as §2, with “The plated cells were then incubated for 14 days in normal medium additionally containing 20% FCS. This period of time enabled colony formation to take place.” left out
as §3, with “divisions.” for “divisions. This colony is also termed a clone.”
as §4

[16] = test system: transformed fibroblast cell line HH4dd; experiment: Clonogenic assay after P-Tyr pretreatment alone, no cell-damaging treatment; type: cell-based, human; settings: FIG. 2A
From the text: Transformed human fibroblasts, e.g., the cell line HH4dd (is derived from human skin, passages 65 to 70), are also suitable for the investigation. This cell line is derived from the normal cell strain HH4 and is likewise characterized by a p53 mutation (Dittmann et al., “The radioprotective effect of BBI is associated with the activation of DNA-repair relevant genes”, Int. J. Radiat. Biol. 74, pages 225-230, 1998). HH4dd grows in soft agar, is characterized by its aneuploidy and induces tumors in nude mice. […]
as §3, with “divisions.” for “divisions. This colony is also termed a clone.”
as §4, §7

In the case of N[C@@H](Cc1ccc(OP(=O)(O)O)cc1)C(=O)O [P-Tyr, O-phospho-L-tyrosine (L-3-[4-hydroxy-phenyl]alanine-4′-phosphate)], the “clonogenic survival after cisplatin treatment” value [1] is reported as “did not lead to any increase in clonogenic survival”, the “increase in clonogenic survival after cisplatin incubation” value [2] is reported as 38.7% and the “effect on clonogenic survival after UVB irradiation” value [3] is reported as “no effect on the clonogenic survival”. The “increase in clonogenic survival after UVB irradiation” value [4] was 37%, the “clonogenic survival after ionizing irradiation” value [5] was “significant reduction in clonogenic survival” and the “clonogenic survival after ionizing irradiation” value [6] was “significant reduction in clonogenic survival”. For the same compound, the “concentration range in which the cytoprotective effect is particularly high” value [7] was 1 to 100 µM, the “effect on clonogenic survival” value [8] was “does not have any effect on the clonogenic survival” and the “growth of human breast and kidney carcinoma cells” value [9] was “inhibits the growth”. The “radioprotection (clonogenic assay)” value [10] was “significant radioprotection”, the “clonogenic survival after ionizing irradiation” value [11] was “significant increase in clonogenic survival” and the “clonogenic survival after ionizing irradiation” value [12] was “significant increase in clonogenic survival”. The “cell growth of liver carcinoma cell line and arc-transformed NIH 3T3 cells” value [13] was “inhibit cell growth”, the “P-Tyr concentration at which maximum survival was achieved” value ([14]; ionizing irradiation at 4 Gy) was 10 µM and the “clonogenic survival after ionizing irradiation” value ([14]; phosphotyrosine plus ionizing irradiation at 4 Gy) was “clear increase in clonogenic survival”. For the same compound, the “clonogenic survival after ionizing irradiation” value ([15]; transformed HH4dd fibroblasts, same treatment) was “no increase in clonogenic survival was observed”, the “toxicity of the radiation” value ([15]; transformed fibroblasts, 2000 pM P-Tyr) was “significant increase in the toxicity of the radiation” and the “effect on clonogenic survival” value [16] was “no effect was seen on clonogenic survival”.

With C[C@@H](OP(=O)(O)O)[C@H](N)C(=O)O [P-Thr, phosphothreonine, reference compound] the “radioprotection (clonogenic assay)” value [10] was “did not result in any radioprotection”.
